Some test systems named below: 786-0 renal; A498 renal; ACHN renal; CCRF-CEM leukemia; HCC-2998 colon; HOP-62 NSCLC; NCI-H522 lung; SK-MEL-5 melanoma; SK-OV-3 ovarian; SN12C renal; U251 CNS; HOP-92 NSCLC; OVCAR-3 ovarian; OVCAR-4 ovarian; SF-268 CNS; MDA-MB-435.
Common to all, as to experiment: growth of human tumour cells (NCI), 48 h

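All cell lines were grown in 96-well plates and treated with compound for 48 hours. At the TGI there is no net growth.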 Some results are limits rather than exact numbers.

`CC(C)(C)C(=O)/C=C/c1cccc(Oc2ccccc2)c1`: the TGI was 30.7 µM in the experiment on 786-0 renal; 37.1 µM in the experiment with A498 renal; 28.5 µM in the experiment with ACHN renal; 31 µM in the experiment with CCRF-CEM leukemia; 36.5 µM with HCC-2998 colon; more than 100 µM in the experiment with HOP-62 NSCLC. Moreover, the TGI was 29.8 µM in the experiment on NCI-H522 lung; 30.4 µM with SK-MEL-5 melanoma; more than 100 µM with SK-OV-3 ovarian; 27.4 µM in the experiment with SN12C renal; 23.5 µM in the experiment with U251 CNS.
Take `CCCc1c(C(=O)OCC)[nH]c(C(=O)CCC(=O)c2[nH]c(C(=O)OCC)c(CCC)c2C(=O)OCC)c1C(=O)OCC`: the TGI in the experiment with 786-0 renal, in the experiment with A498 renal, in the experiment on ACHN renal, with CCRF-CEM leukemia, with HCC-2998 colon and in the experiment with HOP-92 NSCLC was more than 100 µM in each case. The TGI with NCI-H522 lung, in the experiment on OVCAR-3 ovarian, in the experiment on OVCAR-4 ovarian, with SF-268 CNS, in the experiment on SK-MEL-5 melanoma and in the experiment on SK-OV-3 ovarian was more than 100 µM in each case. The TGI in the experiment on SN12C renal and in the experiment with U251 CNS was more than 100 µM in each case.
As to `CC/C(SC)=[N+](\C)[O-]`, the TGI is more than 100 µM in the experiment with 786-0 renal; more than 100 µM in the experiment on A498 renal; more than 100 µM in the experiment with ACHN renal; 23.2 µM in the experiment with CCRF-CEM leukemia; more than 100 µM with HCC-2998 colon; more than 100 µM with HOP-62 NSCLC. For the same compound, the TGI was more than 100 µM with HOP-92 NSCLC; more than 62.3 µM in the experiment with NCI-H522 lung; more than 100 µM in the experiment on OVCAR-3 ovarian; more than 100 µM with OVCAR-4 ovarian; more than 100 µM with SF-268 CNS; more than 100 µM with SK-MEL-5 melanoma. The TGI in the experiment with SK-OV-3 ovarian, with SN12C renal and in the experiment with U251 CNS was more than 100 µM each time.
For `Cn1c(=O)cc(N2CCCC2)[nH]c1=O`, the TGI with 786-0 renal, in the experiment on ACHN renal, in the experiment on CCRF-CEM leukemia, with HCC-2998 colon, with HOP-62 NSCLC and with HOP-92 NSCLC was more than 100 µM in each case. Moreover, the TGI in the experiment on MDA-MB-435, in the experiment with NCI-H522 lung, in the experiment on OVCAR-4 ovarian, in the experiment with SF-268 CNS, in the experiment with SK-MEL-5 melanoma and in the experiment with SN12C renal was more than 100 µM throughout. This compound also returned a TGI in the experiment on U251 CNS of more than 100 µM.
Take `COc1ccc2c(c1)OC(c1ccccc1O)CC2=O` (stereo not drawn): the TGI in the experiment with 786-0 renal, with A498 renal, with ACHN renal, in the experiment on CCRF-CEM leukemia, with HCC-2998 colon and with HOP-62 NSCLC was more than 100 µM throughout. In addition, the TGI was 92.8 µM with NCI-H522 lung; 96.8 µM in the experiment with OVCAR-3 ovarian; more than 100 µM in the experiment with OVCAR-4 ovarian; more than 100 µM in the experiment with SF-268 CNS; more than 100 µM with SK-MEL-5 melanoma; more than 100 µM in the experiment on SN12C renal. Moreover, the TGI with U251 CNS was more than 100 µM.
With `COc1ccc(C2S/C(=C\c3ccccc3)C(=O)N2NC(=O)Cc2ccccc2)cc1` (stereo not drawn), the TGI in the experiment on 786-0 renal, in the experiment on A498 renal, in the experiment with ACHN renal, in the experiment on CCRF-CEM leukemia, with HOP-62 NSCLC and in the experiment on HOP-92 NSCLC was more than 100 µM in each case. The TGI in the experiment with NCI-H522 lung, in the experiment with OVCAR-4 ovarian, in the experiment on SF-268 CNS, in the experiment with SK-MEL-5 melanoma, in the experiment on SK-OV-3 ovarian and with SN12C renal was more than 100 µM throughout. In the experiment on U251 CNS, this compound had a TGI of more than 100 µM.
For the compound `O=C(CC(=O)N1N=C(N(c2ccccc2)c2ccccc2)CC1c1ccccc1)Nc1ccccc1` (stereo not drawn), the TGI in the experiment with 786-0 renal, with ACHN renal, in the experiment with CCRF-CEM leukemia, with HCC-2998 colon, with HOP-62 NSCLC and in the experiment with HOP-92 NSCLC was more than 100 µM each time. Moreover, the TGI with MDA-MB-435, in the experiment on NCI-H522 lung, with OVCAR-3 ovarian, in the experiment on OVCAR-4 ovarian, with SF-268 CNS and with SK-MEL-5 melanoma was more than 100 µM each time. For the same compound, the TGI in the experiment on SK-OV-3 ovarian and in the experiment with U251 CNS was more than 100 µM each time.
With `C/C(=N/NC(N)=S)C(CN(C)C)C(C1=C(O)c2ccccc2OC1)c1ccccc1` (stereo not drawn), the TGI in the experiment on 786-0 renal, in the experiment on A498 renal, with ACHN renal, with CCRF-CEM leukemia, in the experiment on HCC-2998 colon and in the experiment on HOP-62 NSCLC was more than 100 µM throughout. The TGI in the experiment with NCI-H522 lung, in the experiment on OVCAR-3 ovarian, in the experiment on OVCAR-4 ovarian, in the experiment with SF-268 CNS, in the experiment with SK-MEL-5 melanoma and in the experiment on SK-OV-3 ovarian was more than 100 µM each time. For the same compound, the TGI in the experiment with SN12C renal and in the experiment on U251 CNS was more than 100 µM each time.
With `CN1N=C2c3ccccc3CC[C@H]2C1c1cccc(O)c1` (stereo partly drawn), the TGI in the experiment with 786-0 renal, with A498 renal, with ACHN renal, in the experiment with CCRF-CEM leukemia, in the experiment with HCC-2998 colon and in the experiment on HOP-62 NSCLC was more than 100 µM throughout. Further, the TGI in the experiment on HOP-92 NSCLC, in the experiment on NCI-H522 lung, in the experiment on OVCAR-3 ovarian, with OVCAR-4 ovarian, with SF-268 CNS and in the experiment with SK-OV-3 ovarian was more than 100 µM in each case. For the same compound, the TGI in the experiment on SN12C renal and in the experiment with U251 CNS was more than 100 µM throughout.
Take `COC(=O)C(=O)C(C(=O)OC)C(=O)C(=O)Nc1cc(Cl)c(Cl)cc1Cl` (stereo not drawn): the TGI in the experiment with 786-0 renal, in the experiment with A498 renal, in the experiment on ACHN renal, in the experiment with CCRF-CEM leukemia, in the experiment on HCC-2998 colon and in the experiment with HOP-62 NSCLC was more than 100 µM in each case. The TGI in the experiment with HOP-92 NSCLC, in the experiment on NCI-H522 lung, in the experiment on OVCAR-3 ovarian, in the experiment on OVCAR-4 ovarian, with SF-268 CNS and with SK-MEL-5 melanoma was more than 100 µM throughout. Further, the TGI with SK-OV-3 ovarian, in the experiment on SN12C renal and in the experiment with U251 CNS was more than 100 µM in each case.
With `CC(C)C1COC(c2ccc3ccccc3c2-c2c(O[Si](C)(C)C(C)(C)C)ccc3ccccc23)=N1` (stereo not drawn), the TGI in the experiment with 786-0 renal came out at 32.4 µM; in the experiment on A498 renal it was 36.2 µM; with ACHN renal, 33.2 µM; in the experiment with CCRF-CEM leukemia, 35.5 µM; in the experiment on HCC-2998 colon, 28.9 µM; in the experiment on HOP-62 NSCLC, 33.4 µM. In addition, the TGI in the experiment with HOP-92 NSCLC amounted to 26.6 µM; in the experiment with NCI-H522 lung it was 29.8 µM; with OVCAR-3 ovarian, 31.5 µM; with OVCAR-4 ovarian, 36.1 µM; in the experiment on SF-268 CNS, 34.7 µM; with SK-MEL-5 melanoma it was 31.8 µM. Besides, the TGI was determined as 34.5 µM with SK-OV-3 ovarian and 33.2 µM with SN12C renal.
`COC(=O)N/N=C(/Cc1occc(=O)c1O)C(=O)Nc1ccc([N+](=O)[O-])cc1[N+](=O)[O-]`: the TGI in the experiment on 786-0 renal, in the experiment on A498 renal, in the experiment on ACHN renal, with CCRF-CEM leukemia, with HCC-2998 colon and in the experiment on HOP-62 NSCLC was more than 100 µM each time. Further, the TGI in the experiment with HOP-92 NSCLC, with NCI-H522 lung, in the experiment on OVCAR-4 ovarian, in the experiment on SF-268 CNS, in the experiment with SK-MEL-5 melanoma and with SK-OV-3 ovarian was more than 100 µM in each case. Also, the TGI with SN12C renal and in the experiment with U251 CNS was more than 100 µM each time.
As for `Cn1c(=O)n2n(c1=O)[C@@H](c1ccccc1)[C@H]2c1ccccc1`, the TGI with 786-0 renal, in the experiment with A498 renal, with ACHN renal, with CCRF-CEM leukemia, in the experiment on HCC-2998 colon and in the experiment with HOP-62 NSCLC was more than 100 µM throughout. Also, the TGI with HOP-92 NSCLC, in the experiment with OVCAR-3 ovarian, in the experiment with OVCAR-4 ovarian, in the experiment with SK-MEL-5 melanoma, in the experiment on SK-OV-3 ovarian and in the experiment with SN12C renal was more than 100 µM each time. In the experiment with U251 CNS, the TGI was more than 100 µM.
Turning to `O=C1NC2C(CCO)CC=C[C@H]2c2cc3c(cc21)OCO3` (stereo partly drawn), the TGI with 786-0 renal, in the experiment on ACHN renal, with CCRF-CEM leukemia, in the experiment with HOP-62 NSCLC, in the experiment with NCI-H522 lung and in the experiment on OVCAR-3 ovarian was more than 100 µM in each case. Moreover, the TGI in the experiment with SF-268 CNS, in the experiment on SK-OV-3 ovarian, in the experiment with SN12C renal and in the experiment with U251 CNS was more than 100 µM in each case.
Turning to `COC1=CC(=O)C2C(C1=O)C(c1ccc(OC)c(OC)c1)[C@H]2C` (stereo partly drawn), the TGI was 31.9 µM in the experiment on 786-0 renal; more than 100 µM in the experiment on A498 renal; 33.4 µM in the experiment on ACHN renal; 62.4 µM in the experiment with CCRF-CEM leukemia; more than 100 µM in the experiment with HCC-2998 colon; more than 100 µM in the experiment with HOP-62 NSCLC. The TGI in the experiment on HOP-92 NSCLC was 36.6 µM; in the experiment on NCI-H522 lung it was 26.1 µM; in the experiment with OVCAR-3 ovarian, 40.1 µM; with OVCAR-4 ovarian it was 30.6 µM; with SF-268 CNS, more than 100 µM; in the experiment with SK-MEL-5 melanoma it was 61.4 µM. Also, the TGI in the experiment with SK-OV-3 ovarian and with U251 CNS was more than 100 µM throughout.
In the case of `O=C(N/N=C(\c1nc2ccc(Cl)cc2[nH]c1=O)C(O)c1ccccc1Cl)c1ccncc1` (stereo not drawn), the TGI in the experiment on 786-0 renal, in the experiment on A498 renal, in the experiment on ACHN renal, in the experiment with CCRF-CEM leukemia, in the experiment on HCC-2998 colon and in the experiment on HOP-92 NSCLC was more than 100 µM each time. Also, the TGI in the experiment with NCI-H522 lung, with OVCAR-3 ovarian, in the experiment on OVCAR-4 ovarian, with SF-268 CNS, with SK-MEL-5 melanoma and with SK-OV-3 ovarian was more than 100 µM in each case.

Values taken from PubChem BioAssay (NCI).
